IC50 data for 21 compounds are collected here from US11247990B1, “Bicyclic fused pyridine compounds as inhibitors of TAM kinases” (ARRAY BIOPHARMA INC., priority 2017, dated 2022).

Molecules are shown by their SMILES.

The term IC50 denotes the concentration at which inhibition is half-maximal.

What all share (details): averaged IC50
Assay [1] addresses His-tagged recombinant human AXL cytoplasmic domain (Homo sapiens (Human), UniProt P30530). Kind of assay: AXL Enzyme Assay (LanthaScreen Eu Kinase Binding, TR-FRET). The method, boiled down:
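Compound displacement measured by TR-FRET after 60 min at 22 °C, using Eu-based LanthaScreen binding technology. Ratiometric emission converted to percent of control, fitted to a 4-parameter logistic curve, with IC50 at 50 POC.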

In assay [2] the target is GST-tagged recombinant human TYRO3 kinase domain (Homo sapiens (Human), UniProt Q06418). Kind of assay: TYRO3 Enzyme Assay (LanthaScreen Eu Kinase Binding, TR-FRET). The method, boiled down: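 LanthaScreen Eu binding (tracer displacement) format read by TR-FRET after 60 min at 22 °C. Emission ratio converted to percent of control; IC50 taken where a 4-parameter logistic fit crosses 50 POC.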

The target of assay [3] is His-tagged recombinant human MER cytoplasmic domain (Homo sapiens (Human), UniProt Q12866). Kind of assay: MER Enzyme Assay (LanthaScreen Eu Kinase Binding, TR-FRET). In a few lines:
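Percent of control, derived from ratiometric TR-FRET emission, was fitted to a 4-parameter logistic curve and IC50 taken at 50 POC. Binding was read after 60 min at 22 °C using Eu-based LanthaScreen technology and recombinant His-tagged MER cytoplasmic domain.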
A general note: Time-resolved FRET reads energy transfer from a long-lived donor to a nearby acceptor.

Sequence of GST-tagged recombinant human TYRO3 kinase domain (Q06418 518-790): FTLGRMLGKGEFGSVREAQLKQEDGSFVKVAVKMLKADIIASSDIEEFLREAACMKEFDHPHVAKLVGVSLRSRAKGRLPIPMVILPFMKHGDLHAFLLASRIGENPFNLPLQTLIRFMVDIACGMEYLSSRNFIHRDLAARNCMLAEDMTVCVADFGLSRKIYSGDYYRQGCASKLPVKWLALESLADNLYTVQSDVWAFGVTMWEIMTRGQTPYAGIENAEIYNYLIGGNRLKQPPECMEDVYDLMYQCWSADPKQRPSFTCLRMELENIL
Sequence of His-tagged recombinant human AXL cytoplasmic domain (P30530 473-894): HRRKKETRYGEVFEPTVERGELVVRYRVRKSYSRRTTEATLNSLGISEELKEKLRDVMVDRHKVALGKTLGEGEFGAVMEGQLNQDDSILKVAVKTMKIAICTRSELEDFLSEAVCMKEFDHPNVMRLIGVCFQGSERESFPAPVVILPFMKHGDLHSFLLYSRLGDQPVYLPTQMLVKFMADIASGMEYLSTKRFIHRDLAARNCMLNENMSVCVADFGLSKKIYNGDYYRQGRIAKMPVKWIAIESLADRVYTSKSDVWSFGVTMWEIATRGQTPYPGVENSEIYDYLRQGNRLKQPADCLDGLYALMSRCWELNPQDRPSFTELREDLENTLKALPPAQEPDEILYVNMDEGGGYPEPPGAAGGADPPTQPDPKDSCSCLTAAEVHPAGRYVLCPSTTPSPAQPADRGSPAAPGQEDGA
Sequence of His-tagged recombinant human MER cytoplasmic domain (Q12866 527-999): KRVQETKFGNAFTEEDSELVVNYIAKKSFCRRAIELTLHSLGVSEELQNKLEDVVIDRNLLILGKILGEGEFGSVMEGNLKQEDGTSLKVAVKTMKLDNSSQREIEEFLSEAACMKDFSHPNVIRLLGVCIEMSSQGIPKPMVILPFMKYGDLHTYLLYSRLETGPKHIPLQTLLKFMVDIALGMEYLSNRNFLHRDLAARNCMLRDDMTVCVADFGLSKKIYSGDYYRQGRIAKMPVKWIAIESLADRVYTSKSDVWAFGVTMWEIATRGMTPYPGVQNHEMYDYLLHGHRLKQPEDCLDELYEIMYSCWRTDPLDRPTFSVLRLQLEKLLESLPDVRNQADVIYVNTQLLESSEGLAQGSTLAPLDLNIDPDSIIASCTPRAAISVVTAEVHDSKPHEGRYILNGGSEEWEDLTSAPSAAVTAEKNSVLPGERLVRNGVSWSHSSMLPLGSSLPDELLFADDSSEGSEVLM

For `CCNc1cc2c(cn1)c(-c1ncco1)nn2[C@H]1CC[C@@H](Oc2ccc(=O)n(C)n2)CC1` [Example 81, 6-(((1s,4s)-4-(6-(ethylamino)-3-(oxazol-2-yl)-1H-pyrazolo[4,3-c]pyridin-1-yl)cyclohexyl)oxy)-2-methylpyridazin-3(2H)-one bis(2,2,2-trifluoroacetate)], the IC50 in assay [1], in assay [2] and in assay [3] was 1000 to 10000 nM each time.
For the compound `CNc1cc2c(cn1)c(-c1cnn(C)c1)nn2[C@H]1CC[C@@H](Oc2ccccc2S(C)(=O)=O)CC1` [Example 375, N-methyl-3-(1-methyl-1H-pyrazol-4-yl)-1-((1s,4s)-4-(2-(methylsulfonyl)phenoxy)cyclohexyl)-1H-pyrazolo[4,3-c]pyridin-6-amine], the results for the IC50 in assay [1], in assay [2] and in assay [3] were under 10 nM, 10 to 100 nM and under 10 nM, respectively.
Consider `CCNc1cc2c(cn1)c(-c1cnn(C(C)(C)C#N)c1)nn2[C@H]1CC[C@@H](Oc2cn(C)nc2C(F)(F)F)CC1` [Example 280, 2-(4-(6-(ethylamino)-1-((1s,4s)-4-((1-methyl-3-(trifluoromethyl)-1H-pyrazol-4-yl)oxy)cyclohexyl)-1H-pyrazolo[4,3-c]pyridin-3-yl)-1H-pyrazol-1-yl)-2-methylpropanenitrile], for which the concentration for half-maximal inhibition (IC50) in assay [1], in assay [2] and in assay [3] was under 10 nM each time.
Consider `CCNc1cc2c(cn1)c(N1CC[C@H](N(C)C)C1)nn2[C@H]1CC[C@@H](Oc2nccc(C(F)(F)F)c2F)CC1` [Example 335, 3-((S)-3-(dimethylamino)pyrrolidin-1-yl)-N-ethyl-1-((1s,4R)-4-((3-fluoro-4-(trifluoromethyl)pyridin-2-yl)oxy)cyclohexyl)-1H-pyrazolo[4,3-c]pyridin-6-amine], for which the IC50 in assay [1] is under 10 nM; in assay [2], 10 to 100 nM; in assay [3], under 10 nM.
For the compound `CCNc1cc2c(cn1)c(-c1cnn(C[C@@H](O)C(C)(C)O)c1)nn2[C@H]1CC[C@@H](Oc2nccc(C(F)(F)F)c2F)CC1` [Example 237, (R)-1-(4-(6-(ethylamino)-1-((1s,4R)-4-((3-fluoro-4-(trifluoromethyl)pyridin-2-yl)oxy)cyclohexyl)-1H-pyrazolo[4,3-c]pyridin-3-yl)-1H-pyrazol-1-yl)-3-methylbutane-2,3-diol], the half-inhibitory concentration (IC50) in assay [1] is under 10 nM; in assay [2], 10 to 100 nM; in assay [3], under 10 nM.
As to `CCNc1cc2c(cn1)c(-c1cnn(C[C@@H](O)CO)c1)nn2[C@H]1CC[C@@H](Oc2ccc(F)cc2Cl)CC1` [Example 436, (R)-3-(4-(1-((1s,4S)-4-(2-chloro-4-fluorophenoxy)cyclohexyl)-6-(ethylamino)-1H-pyrazolo[4,3-c]pyridin-3-yl)-1H-pyrazol-1-yl)propane-1,2-diol], the values for the IC50 in assay [1], in assay [2] and in assay [3] were under 10 nM, 10 to 100 nM and under 10 nM, respectively.
Consider `CCNc1cc2c(cn1)c(N1CCC(NC)CC1)nn2[C@H]1CC[C@@H](Oc2nccc(C(F)(F)F)c2F)CC1` [Example 344, N-ethyl-1-((1s,4s)-4((3-fluoro-4-(trifluoromethyl)pyridin-2-yl)oxy)cyclohexyl)-3-(4-(methylamino)piperidin-1-yl)-1H-pyrazolo[4,3-c]pyridin-6-amine], for which the IC50 in assay [1] was under 10 nM; in assay [2], 10 to 100 nM; in assay [3], under 10 nM.
For the compound `CCNc1cc2c(cn1)c(-c1cnn(C[C@H](O)CO)c1)nn2[C@H]1CC[C@@H](Oc2cccnc2C(F)(F)F)CC1` [Example 208, (S)-3-(4-(6-(ethylamino)-1-((1s,4R)-4-((2-(trifluoromethyl)pyridin-3-yl)oxy)cyclohexyl)-1H-pyrazolo[4,3-c]pyridin-3-yl)-1H-pyrazol-1-yl)propane-1,2-diol], the IC50 in assay [1], in assay [2] and in assay [3] was under 10 nM throughout.
On to `CCNc1cc2c(cn1)c(-c1ccc3c(c1)CN(C)C3=O)nn2[C@H]1CC[C@@H](Oc2cn(C)nc2C(F)(F)F)CC1` [Example 288, 5-(6-(ethylamino)-1-((1s,4s)-4((1-methyl-3-(trifluoromethyl)-1H-pyrazol-4-yl)oxy)cyclohexyl)-1H-pyrazolo[4,3-c]pyridin-3-yl)-2-methylisoindolin-1-one], for which the IC50 in assay [1], in assay [2] and in assay [3] was under 10 nM throughout.
Take `CCNc1cc2c(cn1)c(-c1ccn(C)c(=O)c1)nn2[C@H]1CC[C@@H](Oc2nccc(C(F)(F)F)c2F)CC1` [Example 297, 4-(6-(ethylamino)-1-((1s,4s)-4-((3-fluoro-4-(trifluoromethyl)pyridin-2-yl)oxy)cyclohexyl)-1H-pyrazolo[4,3-c]pyridin-3-yl)-1-methylpyridin-2(1H)-one]: the IC50 was under 10 nM in assay [1], 10 to 100 nM in assay [2] and under 10 nM in assay [3].
As for `CCNc1cc2c(cn1)c(-c1cnn(C)c1)nn2[C@H]1CC[C@@H](Oc2cccc(C#N)c2F)CC1` [Example 497], the IC50 in assay [1], in assay [2] and in assay [3] was under 10 nM in each case.
In the case of `CNc1cc2c(cn1)c(-c1cnn(C)c1)nn2[C@H]1CC[C@@H](Oc2cccnc2C(F)(F)F)CC1` [Example 137, N-methyl-3-(1-methyl-1H-pyrazol-4-yl)-1-((1s,4s)-4-((2-(trifluoromethyl)pyridin-3-yl)oxy)cyclohexyl)-1H-pyrazolo[4,3-c]pyridin-6-amine], the IC50 in assay [1], in assay [2] and in assay [3] was under 10 nM throughout.
In the case of `CNc1cc2c(cn1)c(-c1cnn(C)c1)nn2[C@H]1CC[C@@H](Oc2cccnc2C#N)CC1` [Example 140, 3-(((1s,4s)-4-(3-(1-methyl-1H-pyrazol-4-yl)-6-(methylamino)-1H-pyrazolo[4,3-c]pyridin-1-yl)cyclohexyl)oxy)picolinonitrile], the IC50 in assay [1], in assay [2] and in assay [3] was under 10 nM each time.
Take `CCNc1cc2c(cn1)c(-c1cnn(C(C)(C)C#N)c1)nn2[C@H]1CC[C@@H](Oc2nccc(C(F)(F)F)c2F)CC1` [Example 260, 2-(4-(6-(ethylamino)-1-((1s,4s)-4-((3-fluoro-4-(trifluoromethyl)pyridin-2-yl)oxy)cyclohexyl)-1H-pyrazolo[4,3-c]pyridin-3-yl)-1H-pyrazol-1-yl)-2-methylpropanenitrile]: the values for the IC50 in assay [1], in assay [2] and in assay [3] were under 10 nM, 100 to 1000 nM and under 10 nM, respectively.
For the compound `CCNc1cc2c(cn1)c(-c1cnn(C(C)(C)C#N)c1)nn2[C@H]1CC[C@@H](Oc2cccnc2C(F)(F)F)CC1` [Example 164, 2-(4-(6-(ethylamino)-1-((1s,4s)-4-((2-(trifluoromethyl)pyridin-3-yl)oxy)cyclohexyl)-1H-pyrazolo[4,3-c]pyridin-3-yl)-1H-pyrazol-1-yl)-2-methylpropanenitrile], the IC50 in assay [1], in assay [2] and in assay [3] was under 10 nM throughout.
In the case of `CNc1cc2c(cn1)c(-c1cnn(C)c1)nn2[C@H]1CC[C@@H](Oc2nccnc2C(F)(F)F)CC1` [Example 171, N-methyl-3-(1-methyl-1H-pyrazol-4-yl)-1-((1s,4s)-4-((3-(trifluoromethyl)pyrazin-2-yl)oxy)cyclohexyl)-1H-pyrazolo[4,3-c]pyridin-6-amine], the IC50 in assay [1], in assay [2] and in assay [3] was under 10 nM throughout.
For the compound `CNc1cc2c(cn1)c(-c1ccc3c(c1)CN(C)C3=O)nn2[C@H]1CC[C@@H](Oc2cn(C)nc2C(F)(F)F)CC1` [Example 286, 2-methyl-5-(1-((1s,4s)-4-((1-methyl-3-(trifluoromethyl)-1H-pyrazol-4-yl)oxy)cyclohexyl)-6-(methylamino)-1H-pyrazolo[4,3-c]pyridin-3-yl)isoindolin-1-one], the IC50 in assay [1], in assay [2] and in assay [3] was under 10 nM throughout.
Take `CCNc1cc2c(cn1)c(-c1ccc(CN3CCN(C)CC3)cc1)nn2[C@H]1CC[C@@H](Oc2cnn(C)c2C(F)(F)F)CC1` [Example 293, N-ethyl-1-((1s,4s)-4-((1-methyl-5-(trifluoromethyl)-1H-pyrazol-4-yl)oxy)cyclohexyl)-3-(4-((4-methylpiperazin-1-yl)methyl)phenyl)-1H-pyrazolo[4,3-c]pyridin-6-amine]: the IC50 is under 10 nM in assay [1], 10 to 100 nM in assay [2] and under 10 nM in assay [3].
As for `CCNc1cc2c(cn1)c(-c1cnc(C)o1)nn2[C@H]1CC[C@@H](Oc2nccc(C(F)(F)F)c2F)CC1` [Example 308, N-ethyl-1-((1s,4s)-4-((3-fluoro-4-(trifluoromethyl)pyridin-2-yl)oxy)cyclohexyl)-3-(2-methyloxazol-5-yl)-1H-pyrazolo[4,3-c]pyridin-6-amine], the IC50 is under 10 nM in assay [1], 100 to 1000 nM in assay [2] and under 10 nM in assay [3].
With `CNc1cc2c(cn1)c(-c1cnn(C)c1)nn2[C@H]1CC[C@@H](Oc2ccccc2)[C@H](O)C1` [Example 471B, (1R,2R,5S)-5-(3-(1-methyl-1H-pyrazol-4-yl)-6-(methylamino)-1H-pyrazolo[4,3-c]pyridin-1-yl)-2-phenoxycyclohexan-1-ol], the values for the IC50 in assay [1], in assay [2] and in assay [3] were under 10 nM, 10 to 100 nM and under 10 nM, respectively.
Consider `CCNc1cc2c(cn1)c(-c1cnn(C[C@@H](O)CO)c1)nn2[C@H]1CC[C@@H](Oc2cccc(Cl)c2Cl)CC1` [Example 439], for which the results for the IC50 in assay [1], in assay [2] and in assay [3] were under 10 nM, 10 to 100 nM and under 10 nM, respectively.
